The record followed here is PubChem BioAssay AID588827 (Broad Institute, 2011).

Each structure is given as a SMILES string. Inconclusive results are not listed.

As a reminder, the AC50 is the concentration at which the activity in the assay is half-maximal.

The assay relates to NIH3T3 R4 HSF-1 GFP reporter, heat shock, 48 h. Description: GFP reporter loss versus dox-driven RFP – NIH3T3 R4 cells, cherry-pick, set 4, dose response (AID 588827).

Consider `Cc1ccc(NC2=C/C(=N\S(=O)(=O)c3cccs3)c3ccccc3C2=O)c(C)c1`, for which the AC50 is 1.42 µM.
As for `CC12CCC(C/C1=N\N=C1\NC(=O)/C(=C\c3ccc(Cl)cc3)S1)C2(C)C` (stereo not given), the figure is 2.11 µM; as for `COc1ccc(C[C@H]2NC[C@H](O)[C@H]2OC(C)=O)cc1`, 0.361 µM.
As for `COc1ccccc1-c1cc(C(F)(F)F)nc(S(=O)(=O)CCCC(=O)NCc2ccc(F)cc2)n1`, the figure is 5.26 µM.
As for `CC(C)(C)c1ccc2c(c1)OC(C(=O)N/N=C\c1ccc[nH]1)CO2` (stereo not given), the figure is 0.515 µM; as for `Cn1c(=O)c([N+](=O)[O-])c(Cl)c2ccccc21`, 14.2 µM.
For `Cc1cc([N+](=O)[O-])c2ccccc2[n+]1[O-]`, the AC50 is 11 µM.
As for `CCc1ccc(C2=NNC(=Nc3cccc(S(=O)(=O)N(C)C)c3)SC2)cc1`, the figure is 15.7 µM.
The value for `CCOC(=O)c1c(C)[nH]c2c1-c1ccccc1C(=O)C2=O` was 1.23 µM; that for `O=S(=O)(c1ccc2c(c1)C(=NO)c1cc(S(=O)(=O)N3CCCCC3)ccc1-2)N1CCCCC1` was 2.49 µM; that for `O=C(CCl)N(c1ccccc1)C1CCCCC1` was 5.18 µM.
`O=C(CCl)Nc1cn(-c2ccccc2)nc1-c1ccc(F)cc1`: the half-maximal activity concentration (AC50) was 5.2 µM.
On to `CCOC(=O)Cc1nnc2c(Nc3ccccc3F)nc3nonc3n12`, for which the half-maximal activity concentration (AC50) is 7.38 µM.
As for `C(=N\NC1=Nc2cccc3cccc1c23)/c1ccccn1`, the figure is 19.2 µM.
As for `C=C(C)C(=O)O[C@H]1C/C(C)=C\C(=O)/C=C(\C)[C@H](O)[C@@H]2OC(=O)C(=C)[C@@H]21`, the figure is 12.9 µM.
